Entries after “also recorded” stand apart in the source; their conditions may differ. No end group written: not given here.
How the values were obtained:
Chga-KO mice = assay: Incorporation and oxidation of 14C-palmitate in vivo; conditions: for 14C-palmitate incorporation into lipids: CST 12 days
Method: FIG. 3. Effects of CST on lipogenesis from fatty acid and fatty acid oxidation in hepatic and adipose tissues. Incorporation of ^14C-palmitate into lipids in adipose (A) and liver (B) in Chga-KO mice after saline or CST treatment (5 μg/g BW, i.p./day) for 12 days. Partial oxidation to acid soluble metabolites (ASM) in adipose tissue (C) and liver (D). Complete oxidation to ^14CO2 in hepatocytes (HepG2) and adipocytes (3T3-L1) after saline or CST treatment (E).
Mice were injected with saline or CST (5 μg/g BW, i.p.; […]) for 12 days. One hr after the final injection, U-^14C-palmitate (5 μCi, 100 μl of 0.2 mM, i.p.) was injected and mice were sacrificed 3 hr later. Liver and adipose tissues (˜100 mg) were homogenized in 0.8 ml 3.5 N perchloric acid and extracted by vortexing in 3 ml of a mixture of methanol and chloroform (2:1, v/v). To the final homogenate, 1.2 ml of 3.5 N perchloric acid was added. The mixture was vortexed and centrifuged. The lower (chloroform) layer contained all the lipids derived from the incorporation of ^14C-palmitate, whereas the upper acidic layer contained partially oxidized acid-soluble metabolites (ASM) of ^14C-palmitate. The lower layer was further fractionated by thin layer chromatography on silica gel plates using hexane: diethyl ether: acetic acid (79:20:1, v/v/v) mixture as the developing solvent. Lipogenesis from palmitate was determined based on the radioactivity of the free palmitic acid band compared to other lipids (phospholipids, triglycerides, diacylglycerol, etc.) on the TLC plate. Complete oxidation of ^14C-palmitate was measured in cultured cells but not in mice.

3T3-L1 adipocytes [1] = assay: Leptin in adipocyte culture media after CST; type: cell-based; conditions: cultured 3T3-L1 adipocytes
Method: (§1) FIG. 1. Plasma parameters of wild-type (WT) and Chga-KO mice treated with saline or CST. (A) Plasma CST from saline or CST (5 μg/g BW, i.p./day) treated WT mice (28 week old) on normal chow (NCD) and high fat diet (60% fat for 16 weeks) as well as from Chga-KO mice (28 week old) on NCD. Body weights (B) and epididymal fat pad size normalized to body weight (C) in 28 week old WT and Chga-KO mice treated with saline or CST for 12 days. Plasma triglyceride (TG) (D), glycerol (E), non-esterified fatty acids (NEFA) (F), and leptin (G) in 28 week old WT and Chga-KO mice after treatment with saline or CST for 12 days. (H) Leptin in adipocyte culture media after treatment with saline or CST.
Mice were fasted for 12 hr prior to blood draw. Triglycerides (TG) and non-esterified fatty acids (NEFA) were assayed using kits from Wako Diagnostics (Richmond, Va.). Glycerol was assayed using a kit from Sigma (St Louis, Mo.). Media from the explant cultures and mouse serum were analysed for glycerol and NEFA as a measure of lipolysis. […]
Oxidation of radiolabeled palmitate in the homogenates of adipose tissue explants as described previously (45). […] Fatty acid oxidation in cells was determined by modifying a published method (46). […] The filter discs were counted to determine the amount of ^14CO2 absorbed in the papers. […]

[2] = Plasma CST level (ELISA) after CST administration; type: in vivo; conditions: WT mice on NCD, CST 5 μg/g BW i.p./day for 12 days
Method: as §1
Adult male (7 month old) WT (31.8±1.2 g) and Chga-KO (39.2±1.5 g) mice in the mixed genetic background (129SvJ×C57BL/6) were studied. Both genotypes were generated from the original founder carrying mixed genotype (50% 129SvJ, 50% C57BL/6) and were maintained by sibling mating. Animals were kept in a 12 hr dark/light cycle and fed standard chow ad libitum. Male C57BL/6 mice, 8 week old, were fed 60% high fat diet (D12492: Research Diets, Inc., New Brunswick) for 16 weeks before using for experiments. […]
Mice were fasted for 12 hr prior to blood draw. […] Media from the explant cultures and mouse serum were analysed for glycerol and NEFA as a measure of lipolysis. […]

3T3-L1 adipocytes [3] = assay: cAMP production in 3T3-L1 adipocytes; type: cell-based; conditions: CST 100 nM, ISO 10 μM, 10 min
[4] = test system: PC-12 neuroendocrine cells; assay: cAMP production in PC-12 cells; type: cell-based

SSMKLSFRARAYGFRGPGPQL [CST]
palmitate oxidation into ASMs (Chga-KO mice; adipose tissue): stimulated | 14C-palmitate incorporation into lipids (Chga-KO mice; adipose tissue): decreased | palmitate oxidation into ASMs (Chga-KO mice; liver): stimulated | 14C-palmitate incorporation into lipids (Chga-KO mice; liver): enhanced | leptin production / release (3T3-L1 adipocytes [1]): inhibited leptin production; also recorded: inhibited leptin release | time plasma CST maintained at this level [2]: at least 4 hr | cAMP production (3T3-L1 adipocytes [3]): not by CST | basal or isoproterenol-induced cAMP levels [4]: did not modulate | cAMP production ([4]; CST 100 nM, ISO 10 μM, 10 min): not by CST

Source: patent publication US9572862B2, “Methods for promoting lipolysis and oxidation in liver and adipose tissue using catestatin” (The Regents of the University of California, priority 2012, dated 2017)
